The record followed here is ChEMBL document CHEMBL1201862, “PubChem BioAssay data set” (2004).

Among the test systems are CCRF-CEM; COLO 205; HCT-116; HT-29; KM12; MDA-N; MOLT-4; Malme-3M; OVCAR-3; OVCAR-5; RXF 393; SF-268; SF-539; SK-OV-3; SN12C; SNB-19; SW-620; TK-10; U-251; UACC-62.
What all share (experiment): DTP human tumour cell line panel, 48 h

Molecules are shown by their SMILES.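 48-hour exposure; five concentrations; linearly interpolated endpoints. Here, GI50 denotes the concentration required for 50% inhibition of growth.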 Active and inactive are the calls of the source. Cut-off read from the data, not from the text of the source: active = GI50 up to about 1.1 µM and inactive = higher.

By GI50 is commonly meant the concentration that inhibits growth by half. For `O=C(CN1c2ccccc2Sc2ccccc21)N1CCNCC1`, the GI50 in the assay with CCRF-CEM was 99.8 µM (inactive); in the assay on COLO 205 it was > 100 µM (inactive); with HCT-116 it was > 100 µM (inactive); in the assay with HT-29 it was > 100 µM (inactive); in the assay with KM12, 64.4 µM (inactive); with MDA-N, > 100 µM (inactive). The GI50 in the assay on MOLT-4 is 64.7 µM (inactive); in the assay on Malme-3M it was > 100 µM (inactive); in the assay on OVCAR-3 it was > 100 µM (inactive); in the assay on OVCAR-5, > 100 µM (inactive); in the assay with RXF 393, 97.5 µM (inactive); in the assay with SF-268, > 100 µM (inactive). Further, the GI50 with SF-539, in the assay with SK-OV-3, in the assay on SN12C, with SNB-19, in the assay on SW-620 and in the assay on TK-10 was > 100 µM (inactive) each time. Also, the GI50 in the assay on U-251 was 56.1 µM (inactive); in the assay on UACC-62, > 100 µM (inactive).
With `COc1ccc([N+](=O)[O-])c2c(NCCCN(C)C)ccnc12`, the GI50 with CCRF-CEM is 15 µM (inactive); in the assay on COLO 205, 2.39 µM (inactive); in the assay with HCT-116 it was 3.77 µM (inactive); in the assay on HT-29, 3.66 µM (inactive); in the assay with KM12, 7 µM (inactive); in the assay with MDA-N, 12.1 µM (inactive). Besides, the GI50 in the assay on MOLT-4 is 1.8 µM (inactive); with Malme-3M, 2.43 µM (inactive); in the assay with OVCAR-3, 2.39 µM (inactive); in the assay on OVCAR-5, 5.9 µM (inactive); with RXF 393, 2.31 µM (inactive); with SF-268 it was 6.18 µM (inactive). Moreover, the GI50 is 4.6 µM (inactive) with SF-539; 11.2 µM (inactive) with SK-OV-3; 7.29 µM (inactive) in the assay with SN12C; 8.3 µM (inactive) in the assay on SNB-19; 4.7 µM (inactive) with SW-620; 10.2 µM (inactive) with TK-10. For the same compound, the results for the GI50 with U-251 and in the assay with UACC-62 were 4.93 µM (inactive) and 3.61 µM (inactive), respectively.
Take `COc1cc(CCNC2=CC(=O)c3nc[nH]c3C2=O)ccc1O`: the GI50 in the assay on CCRF-CEM is 33.3 µM (inactive); with COLO 205, 22.6 µM (inactive); in the assay on HCT-116, 19.6 µM (inactive); with HT-29, 23.6 µM (inactive); with KM12 it was 27.3 µM (inactive); with MDA-N, 18 µM (inactive). The GI50 with MOLT-4 is 32.6 µM (inactive); in the assay with Malme-3M it was 13.1 µM (inactive); in the assay on OVCAR-3 it was 3.16 µM (inactive); in the assay on OVCAR-5, 18.6 µM (inactive); with RXF 393, 43.2 µM (inactive); in the assay on SF-268, 38.9 µM (inactive). The GI50 was 34.5 µM (inactive) with SF-539; 34.4 µM (inactive) with SK-OV-3; 19.1 µM (inactive) with SN12C; 18.2 µM (inactive) with SNB-19; 23.8 µM (inactive) in the assay with SW-620; 36.1 µM (inactive) in the assay with TK-10. Moreover, the GI50 in the assay on U-251 was 23.7 µM (inactive); in the assay on UACC-62, 19.2 µM (inactive).
Take `O=C(N/N=C\c1ccc(Cl)cc1)Nc1cccc2ccccc12`: the GI50 in the assay with CCRF-CEM was 7.96 µM (inactive); with COLO 205, 4.75 µM (inactive); in the assay on HCT-116 it was 3.04 µM (inactive); in the assay with HT-29, 3.21 µM (inactive); in the assay with KM12 it was 2.61 µM (inactive); in the assay on MDA-N, 2.21 µM (inactive). Further, the GI50 with MOLT-4 was 5.61 µM (inactive); in the assay on Malme-3M, 4.24 µM (inactive); in the assay with OVCAR-3, 1.54 µM (inactive); with OVCAR-5 it was 25.8 µM (inactive); in the assay with RXF 393, 3.01 µM (inactive); with SF-268, 6.44 µM (inactive). Further, the GI50 is 5.41 µM (inactive) with SF-539; 2.71 µM (inactive) in the assay on SK-OV-3; 9.51 µM (inactive) in the assay with SN12C; 2.66 µM (inactive) with SNB-19; 3.41 µM (inactive) in the assay with SW-620; 3.32 µM (inactive) in the assay with TK-10. Further, the GI50 was 2.96 µM (inactive) in the assay on U-251 and 9.48 µM (inactive) in the assay with UACC-62.
On to `COc1ccc2oc3c(C)cc4c(OC)nnc(OC)c4c3c2c1`, for which the GI50 with CCRF-CEM was 5.21 µM (inactive); in the assay with COLO 205, 10.8 µM (inactive); in the assay with HCT-116, 2.17 µM (inactive); in the assay with HT-29, 4.57 µM (inactive); in the assay on KM12, 27.4 µM (inactive); in the assay on MDA-N it was 18 µM (inactive). In addition, the GI50 with MOLT-4 was 2.81 µM (inactive); with Malme-3M, 9.95 µM (inactive); with OVCAR-3, > 100 µM (inactive); with OVCAR-5 it was > 100 µM (inactive); in the assay on RXF 393 it was 58.1 µM (inactive); in the assay on SF-268, 6.53 µM (inactive). Also, the GI50 was 7.89 µM (inactive) with SF-539; > 100 µM (inactive) in the assay on SK-OV-3; 7.76 µM (inactive) with SN12C; 13.6 µM (inactive) with SNB-19; 7.57 µM (inactive) in the assay on SW-620; 16.9 µM (inactive) in the assay on TK-10. Further, the GI50 is 1.98 µM (inactive) in the assay on U-251 and 9.31 µM (inactive) in the assay on UACC-62.
Take `O=c1cc(/N=N\c2ccc(Cl)cc2)[nH]c(=O)[nH]1`: the GI50 was 1.44 µM (inactive) in the assay on CCRF-CEM; 2.33 µM (inactive) in the assay on COLO 205; 1.94 µM (inactive) in the assay on HCT-116; 2.35 µM (inactive) in the assay on HT-29; 5.27 µM (inactive) in the assay on KM12; 4.71 µM (inactive) in the assay with MDA-N. For the same compound, the GI50 in the assay with MOLT-4 is 2.9 µM (inactive); with Malme-3M, 3.01 µM (inactive); with OVCAR-3 it was 4.12 µM (inactive); with OVCAR-5, 13.6 µM (inactive); in the assay on RXF 393 it was 6.37 µM (inactive); with SF-268 it was 4.61 µM (inactive). Also, the GI50 is 4.44 µM (inactive) with SF-539; 14.7 µM (inactive) in the assay with SK-OV-3; 3.98 µM (inactive) with SN12C; 10.3 µM (inactive) in the assay with SNB-19; 2.33 µM (inactive) in the assay with SW-620; 7.55 µM (inactive) in the assay on TK-10. For the same compound, the GI50 is 4.81 µM (inactive) in the assay with U-251 and 3.48 µM (inactive) with UACC-62.
As for `COc1cc(/C=C2\CC/C(=C\c3cc(OC)c(O)c(OC)c3)C2=O)cc(OC)c1O`, the GI50 in the assay with CCRF-CEM was 1.85 µM (inactive); with COLO 205, 17.1 µM (inactive); with HCT-116, 1.83 µM (inactive); with HT-29 it was 10.4 µM (inactive); with KM12, 1.48 µM (inactive); with MDA-N, 2.27 µM (inactive). Besides, the GI50 with MOLT-4 is 1.02 µM (active); in the assay on Malme-3M it was 0.345 µM (active); in the assay on OVCAR-3 it was 2.2 µM (inactive); in the assay with OVCAR-5, 6.18 µM (inactive); with RXF 393, 1.72 µM (inactive); in the assay on SF-268, 2.3 µM (inactive). Also, the GI50 in the assay with SF-539 was 3.61 µM (inactive); in the assay on SK-OV-3 it was 3.81 µM (inactive); in the assay on SN12C, 8.32 µM (inactive); in the assay with SNB-19, 3.69 µM (inactive); with SW-620, 1.88 µM (inactive); with TK-10, 5.32 µM (inactive). The GI50 in the assay with U-251 was 2.06 µM (inactive); in the assay with UACC-62, 1.35 µM (inactive).
